Data reported in PMC9133015 (Nature Communications, 2022).
Where “and” joins values, the source holds several entries; their conditions need not be identical. Equal values may be shown once.

Columns and labels:
Assay in all cases: Kinase inhibitor specificity profiling (Reaction Biology Corporation)
Assay type in all cases: biochemical
Design in all cases: % Enzyme Activity (relative to DMSO controls): concentration or dose not given beside the values
[1] = biological target: T1, panel of 370 protein kinases (Homo sapiens, UniProt O00238); settings: 2 h, kinase ALK6/BMPR1B; read-out: % Enzyme Activity (relative to DMSO controls)
T1 construct: purchased Reaction Biology Corporation (assay service)

[2] = biological target: T2, panel of 370 protein kinases (Homo sapiens, UniProt O43353); settings: 2 h, kinase RIPK2; read-out: % Enzyme Activity (relative to DMSO controls)
T2 construct: purchased Reaction Biology Corporation (assay service)

[3] = biological target: T3, panel of 370 protein kinases (Homo sapiens, UniProt P07948); settings: 2 h, kinase LYN; read-out: % Enzyme Activity (relative to DMSO controls)
T3 construct: purchased Reaction Biology Corporation (assay service)
T3 sequence (P07948 whole entry): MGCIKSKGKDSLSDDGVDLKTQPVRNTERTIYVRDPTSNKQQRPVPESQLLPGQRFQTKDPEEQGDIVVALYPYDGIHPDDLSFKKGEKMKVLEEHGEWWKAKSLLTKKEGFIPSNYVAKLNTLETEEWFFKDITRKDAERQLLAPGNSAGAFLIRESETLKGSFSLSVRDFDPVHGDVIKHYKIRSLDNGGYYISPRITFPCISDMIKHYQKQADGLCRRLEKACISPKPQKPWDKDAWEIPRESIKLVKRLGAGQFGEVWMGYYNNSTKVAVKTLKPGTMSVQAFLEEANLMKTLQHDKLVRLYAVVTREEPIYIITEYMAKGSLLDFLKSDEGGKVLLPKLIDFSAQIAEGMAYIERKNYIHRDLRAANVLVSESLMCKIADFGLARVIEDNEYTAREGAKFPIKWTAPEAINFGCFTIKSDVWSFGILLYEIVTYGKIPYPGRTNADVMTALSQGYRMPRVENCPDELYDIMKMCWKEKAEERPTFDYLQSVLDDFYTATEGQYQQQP

[4] = biological target: T4, panel of 370 protein kinases (Homo sapiens, UniProt P17612); settings: 2 h, kinase PKA; read-out: % Enzyme Activity (relative to DMSO controls)
T4 construct: purchased Reaction Biology Corporation (assay service)

[5] = biological target: T5, panel of 370 protein kinases (Homo sapiens, UniProt P23443); settings: 2 h, kinase p70S6K/RPS6KB1; read-out: % Enzyme Activity (relative to DMSO controls)
T5 construct: purchased Reaction Biology Corporation (assay service)

[6] = biological target: T6, panel of 370 protein kinases (Homo sapiens, UniProt P24723); settings: 2 h, kinase PKCeta; read-out: % Enzyme Activity (relative to DMSO controls)
T6 construct: purchased Reaction Biology Corporation (assay service)
T6 sequence (P24723 whole entry): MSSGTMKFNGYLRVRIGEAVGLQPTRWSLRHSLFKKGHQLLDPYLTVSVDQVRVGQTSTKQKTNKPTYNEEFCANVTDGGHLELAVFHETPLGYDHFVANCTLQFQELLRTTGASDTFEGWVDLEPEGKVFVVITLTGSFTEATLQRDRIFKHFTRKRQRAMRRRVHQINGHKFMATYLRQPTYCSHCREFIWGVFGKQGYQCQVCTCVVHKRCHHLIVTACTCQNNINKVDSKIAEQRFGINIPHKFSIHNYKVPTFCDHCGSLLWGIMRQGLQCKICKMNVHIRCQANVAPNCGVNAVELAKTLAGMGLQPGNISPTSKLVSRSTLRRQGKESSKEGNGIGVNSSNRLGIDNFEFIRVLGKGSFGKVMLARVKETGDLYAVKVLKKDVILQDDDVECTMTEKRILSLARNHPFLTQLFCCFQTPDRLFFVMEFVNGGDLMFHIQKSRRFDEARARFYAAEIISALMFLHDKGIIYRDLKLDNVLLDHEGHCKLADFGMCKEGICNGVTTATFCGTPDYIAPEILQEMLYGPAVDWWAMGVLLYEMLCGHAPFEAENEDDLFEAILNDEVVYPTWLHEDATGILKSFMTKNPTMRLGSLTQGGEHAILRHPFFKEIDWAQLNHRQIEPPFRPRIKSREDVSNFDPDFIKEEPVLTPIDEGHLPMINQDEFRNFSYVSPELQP

[7] = biological target: T7, panel of 370 protein kinases (Homo sapiens, UniProt P41240); settings: kinase CSK
T7 construct: purchased Reaction Biology Corporation (assay service)
T7 sequence (P41240 whole entry): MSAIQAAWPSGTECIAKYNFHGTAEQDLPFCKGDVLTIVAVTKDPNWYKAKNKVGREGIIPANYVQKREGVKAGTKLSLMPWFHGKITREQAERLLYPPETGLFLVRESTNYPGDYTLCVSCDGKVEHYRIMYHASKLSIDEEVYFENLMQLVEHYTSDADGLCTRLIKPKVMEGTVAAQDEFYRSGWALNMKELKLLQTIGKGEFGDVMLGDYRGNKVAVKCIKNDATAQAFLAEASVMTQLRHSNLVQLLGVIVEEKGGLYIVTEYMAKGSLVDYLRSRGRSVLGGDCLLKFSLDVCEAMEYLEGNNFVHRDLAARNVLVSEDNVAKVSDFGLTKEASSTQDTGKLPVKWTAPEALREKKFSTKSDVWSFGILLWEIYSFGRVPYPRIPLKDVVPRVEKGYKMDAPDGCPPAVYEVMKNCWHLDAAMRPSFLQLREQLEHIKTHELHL

[8] = biological target: T8, panel of 370 protein kinases (Homo sapiens, UniProt P54764); settings: 2 h, kinase EPHA4; read-out: % Enzyme Activity (relative to DMSO controls)
T8 construct: purchased Reaction Biology Corporation (assay service)

[9] = biological target: T9, panel of 370 protein kinases (Homo sapiens, UniProt Q05397); settings: 2 h, kinase FAK/PTK2; read-out: % Enzyme Activity (relative to DMSO controls)
T9 construct: purchased Reaction Biology Corporation (assay service)

[10] = biological target: T10, panel of 370 protein kinases (Homo sapiens, UniProt Q08881); settings: kinase ITK
T10 construct: purchased Reaction Biology Corporation (assay service)
T10 sequence (Q08881 whole entry): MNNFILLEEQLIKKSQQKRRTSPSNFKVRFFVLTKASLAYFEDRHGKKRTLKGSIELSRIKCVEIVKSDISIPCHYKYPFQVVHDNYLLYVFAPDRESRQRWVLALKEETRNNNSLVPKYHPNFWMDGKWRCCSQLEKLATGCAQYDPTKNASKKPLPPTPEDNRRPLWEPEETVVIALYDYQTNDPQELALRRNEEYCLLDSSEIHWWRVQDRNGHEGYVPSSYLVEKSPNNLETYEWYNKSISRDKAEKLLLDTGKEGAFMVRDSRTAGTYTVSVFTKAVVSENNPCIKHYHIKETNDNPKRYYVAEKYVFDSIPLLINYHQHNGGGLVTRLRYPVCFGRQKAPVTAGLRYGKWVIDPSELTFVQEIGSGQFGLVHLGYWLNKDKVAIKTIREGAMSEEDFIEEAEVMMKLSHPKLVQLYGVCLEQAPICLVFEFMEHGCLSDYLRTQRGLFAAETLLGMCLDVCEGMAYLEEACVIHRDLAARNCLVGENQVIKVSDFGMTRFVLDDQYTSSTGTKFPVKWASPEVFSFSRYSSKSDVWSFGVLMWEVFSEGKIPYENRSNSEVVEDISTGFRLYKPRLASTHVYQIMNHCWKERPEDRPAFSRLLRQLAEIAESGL

[11] = biological target: T11, panel of 370 protein kinases (Homo sapiens, UniProt Q12866); settings: 2 h, kinase c-MER; read-out: % Enzyme Activity (relative to DMSO controls)
T11 construct: purchased Reaction Biology Corporation (assay service)
T11 sequence (Q12866 21-999): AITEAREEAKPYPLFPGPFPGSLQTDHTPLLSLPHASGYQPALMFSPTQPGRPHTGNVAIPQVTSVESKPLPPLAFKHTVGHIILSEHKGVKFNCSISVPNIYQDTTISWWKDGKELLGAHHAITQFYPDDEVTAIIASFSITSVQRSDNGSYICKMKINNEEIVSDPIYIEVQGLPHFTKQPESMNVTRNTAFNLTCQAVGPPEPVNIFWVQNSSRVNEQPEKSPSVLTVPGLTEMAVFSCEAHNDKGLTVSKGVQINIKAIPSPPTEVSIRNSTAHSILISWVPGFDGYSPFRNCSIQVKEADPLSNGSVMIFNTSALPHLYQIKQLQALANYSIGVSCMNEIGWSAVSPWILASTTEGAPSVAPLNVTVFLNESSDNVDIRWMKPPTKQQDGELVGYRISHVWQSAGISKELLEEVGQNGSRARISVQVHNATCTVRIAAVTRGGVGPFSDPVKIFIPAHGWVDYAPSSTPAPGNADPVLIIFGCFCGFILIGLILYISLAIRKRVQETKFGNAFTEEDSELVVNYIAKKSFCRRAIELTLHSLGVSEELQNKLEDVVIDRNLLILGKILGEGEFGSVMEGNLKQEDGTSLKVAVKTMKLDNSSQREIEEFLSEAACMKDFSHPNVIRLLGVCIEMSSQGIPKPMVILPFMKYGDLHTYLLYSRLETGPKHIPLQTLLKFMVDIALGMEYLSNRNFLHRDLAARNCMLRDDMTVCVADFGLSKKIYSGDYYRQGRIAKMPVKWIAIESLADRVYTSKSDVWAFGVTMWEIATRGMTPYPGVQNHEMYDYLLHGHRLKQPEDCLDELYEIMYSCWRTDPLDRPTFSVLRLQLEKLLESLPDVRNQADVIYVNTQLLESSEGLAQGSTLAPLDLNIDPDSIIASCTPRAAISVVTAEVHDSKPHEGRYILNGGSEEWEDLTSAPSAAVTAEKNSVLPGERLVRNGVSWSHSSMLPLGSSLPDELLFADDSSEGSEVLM

[12] = biological target: T12, panel of 370 protein kinases (Homo sapiens, UniProt Q13153); settings: 2 h, kinase PAK1; read-out: % Enzyme Activity (relative to DMSO controls)
T12 construct: purchased Reaction Biology Corporation (assay service)

[13] = biological target: T13, panel of 370 protein kinases (Homo sapiens, UniProt Q13873); settings: kinase BMPR2
T13 construct: purchased Reaction Biology Corporation (assay service)
T13 sequence (Q13873 27-1038): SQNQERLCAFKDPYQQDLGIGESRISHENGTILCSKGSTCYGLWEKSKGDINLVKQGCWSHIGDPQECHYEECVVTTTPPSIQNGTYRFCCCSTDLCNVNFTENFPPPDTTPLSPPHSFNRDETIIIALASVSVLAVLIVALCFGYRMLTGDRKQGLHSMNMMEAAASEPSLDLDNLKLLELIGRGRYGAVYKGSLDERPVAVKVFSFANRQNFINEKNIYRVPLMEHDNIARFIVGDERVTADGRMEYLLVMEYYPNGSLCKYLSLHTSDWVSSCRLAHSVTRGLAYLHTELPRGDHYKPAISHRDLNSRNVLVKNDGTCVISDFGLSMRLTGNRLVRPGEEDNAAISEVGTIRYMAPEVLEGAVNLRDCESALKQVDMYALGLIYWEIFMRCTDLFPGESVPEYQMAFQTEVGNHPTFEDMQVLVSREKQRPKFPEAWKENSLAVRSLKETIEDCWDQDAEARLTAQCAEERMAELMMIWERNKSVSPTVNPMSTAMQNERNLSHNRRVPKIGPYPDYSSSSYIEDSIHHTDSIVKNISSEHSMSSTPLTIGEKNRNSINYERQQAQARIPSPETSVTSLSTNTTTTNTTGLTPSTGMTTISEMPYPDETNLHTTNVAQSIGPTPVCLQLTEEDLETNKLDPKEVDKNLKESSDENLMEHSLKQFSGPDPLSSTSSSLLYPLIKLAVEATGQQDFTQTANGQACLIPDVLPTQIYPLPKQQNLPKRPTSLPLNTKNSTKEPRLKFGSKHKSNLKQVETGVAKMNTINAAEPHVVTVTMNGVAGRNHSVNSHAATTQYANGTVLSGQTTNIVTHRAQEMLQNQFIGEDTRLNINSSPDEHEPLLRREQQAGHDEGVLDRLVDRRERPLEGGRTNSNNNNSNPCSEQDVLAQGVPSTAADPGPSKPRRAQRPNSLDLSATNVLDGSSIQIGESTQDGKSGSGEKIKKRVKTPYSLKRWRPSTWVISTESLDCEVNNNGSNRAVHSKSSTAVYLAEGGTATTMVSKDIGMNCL

[14] = biological target: T14, panel of 370 protein kinases (Homo sapiens, UniProt Q15418); settings: 2 h, kinase RSK1; read-out: % Enzyme Activity (relative to DMSO controls)
T14 construct: purchased Reaction Biology Corporation (assay service)

[15] = biological target: T15, panel of 370 protein kinases (Homo sapiens, UniProt Q16566); settings: 2 h, kinase CAMK4; read-out: % Enzyme Activity (relative to DMSO controls)
T15 construct: purchased Reaction Biology Corporation (assay service)

[16] = biological target: T16, panel of 370 protein kinases (Homo sapiens, UniProt Q86UE8); settings: 2 h, kinase TLK2; read-out: % Enzyme Activity (relative to DMSO controls)
T16 construct: purchased Reaction Biology Corporation (assay service)

[17] = biological target: T17, panel of 370 protein kinases (Homo sapiens, UniProt Q8TDC3); settings: 2 h, kinase BRSK1; read-out: % Enzyme Activity (relative to DMSO controls)
T17 construct: purchased Reaction Biology Corporation (assay service)

[18] = biological target: T18, panel of 370 protein kinases (Homo sapiens, UniProt Q8WTQ7); settings: 2 h, kinase GRK7; read-out: % Enzyme Activity (relative to DMSO controls)
T18 construct: purchased Reaction Biology Corporation (assay service)

[19] = biological target: T19, panel of 370 protein kinases (Homo sapiens, UniProt Q9P289); settings: 2 h, kinase MST4; read-out: % Enzyme Activity (relative to DMSO controls)
T19 construct: purchased Reaction Biology Corporation (assay service)

[20] = biological target: T20, panel of 370 protein kinases (Homo sapiens, UniProt Q9UPZ9); settings: 2 h, kinase LCK2/ICK; read-out: % Enzyme Activity (relative to DMSO controls)
T20 construct: purchased Reaction Biology Corporation (assay service)

[21] = biological target: T21, panel of 370 protein kinases (Homo sapiens, UniProt Q9Y3S1); settings: 2 h, kinase WNK2; read-out: % Enzyme Activity (relative to DMSO controls)
T21 construct: purchased Reaction Biology Corporation (assay service)

[22] = biological target: T22, panel of 370 protein kinases (Homo sapiens, UniProt Q9Y463); settings: 2 h, kinase DYRK1B; read-out: % Enzyme Activity (relative to DMSO controls)
T22 construct: purchased Reaction Biology Corporation (assay service)
T22 sequence (Q9Y463 whole entry): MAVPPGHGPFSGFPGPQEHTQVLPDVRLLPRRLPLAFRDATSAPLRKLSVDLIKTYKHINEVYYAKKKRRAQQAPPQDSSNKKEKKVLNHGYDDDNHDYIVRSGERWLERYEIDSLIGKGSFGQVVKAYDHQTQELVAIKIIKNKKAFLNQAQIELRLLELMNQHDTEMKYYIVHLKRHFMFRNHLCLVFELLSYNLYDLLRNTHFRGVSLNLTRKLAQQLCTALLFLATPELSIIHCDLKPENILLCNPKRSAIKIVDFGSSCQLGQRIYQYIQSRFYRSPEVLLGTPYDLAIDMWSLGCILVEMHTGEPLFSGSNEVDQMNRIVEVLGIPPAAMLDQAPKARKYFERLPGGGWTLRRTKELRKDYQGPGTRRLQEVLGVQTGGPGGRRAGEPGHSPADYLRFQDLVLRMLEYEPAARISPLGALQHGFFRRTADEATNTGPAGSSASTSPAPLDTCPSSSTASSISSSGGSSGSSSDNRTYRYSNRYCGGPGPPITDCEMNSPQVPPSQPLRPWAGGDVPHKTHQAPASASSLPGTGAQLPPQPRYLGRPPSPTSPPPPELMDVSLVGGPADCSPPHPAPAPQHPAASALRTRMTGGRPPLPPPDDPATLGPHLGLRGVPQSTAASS

## CCN1CCN(C(=O)c2ccc(Nc3ncc(F)c(-c4ccc5nc(N(C)C)sc5c4)n3)nc2)CC1 [YK-2-69]
[1]
  remaining activity at 1 µM: 90.5%
[2]
  remaining activity at 1 µM: 48.3%
[3]
  remaining activity at 1 µM: 93.9%
[4]
  remaining activity at 1 µM: 98.7%
[5]
  remaining activity at 1 µM: 99.7%
[6]
  remaining activity at 1 µM: 77%
[7]
  % Enzyme Activity (relative to DMSO controls): 102.94% and 101.79%
[8]
  remaining activity at 1 µM: 70.2%
[9]
  remaining activity at 1 µM: 95.9%
[10]
  % Enzyme Activity (relative to DMSO controls): 117.90% and 109.49%
[11]
  remaining activity at 1 µM: 96.8%
[12]
  remaining activity at 1 µM: 89.2%
[13]
  % Enzyme Activity (relative to DMSO controls): 80.68% and 76.25%
[14]
  remaining activity at 1 µM: 102%
[15]
  remaining activity at 1 µM: 101%
[16]
  remaining activity at 1 µM: 91.4%
[17]
  remaining activity at 1 µM: 94%
[18]
  remaining activity at 1 µM: 102%
[19]
  remaining activity at 1 µM: 98.4%
[20]
  remaining activity at 1 µM: 99.2%
[21]
  remaining activity at 1 µM: 99.9%
[22]
  remaining activity at 1 µM: 40.7%
